Reference: patent US4362743A, “Antibacterial monic acid esters” (Beecham Group Limited, priority 1980, dated 1982)
≈ marks a conversion by molar mass, not a printed value. Where two headings read alike, the source gives them in different places.

Columns and labels:
[1] = Mean serum concentrations in neonatal piglets after intramuscular or oral administration; format: in vivo; conditions: pig, 50 mg/kg; for concentration at 40 min: 40° (printed)
Protocol: Blood levels were assessed in neonatal piglets (2 to 4 animals per group and mean bodyweights about 2 kg). The dose was 50 mg/kg (dose solution=25 mg/ml in 25% ethanol). Doses were given by intramscular injection and orally by stomach tube. Piglets were beld at intervals up to 6 and at 24 hours, serum assayed microbiologically (B. subtilis ATCC 6633).

[2] = tested on: Haemophilus influenzae Wy21; experiment: Human bacteria MIC; format: cell-based
Protocol: The values were determined by serial dilutions in nutrient agar with 5% chocolated horse blood after incubations for 18 hours at 37° C.

in vivo = conditions: mouse, 50 mg/kg
[3] = Haemophilus influenzae Wy21, nutrient agar, 5% chocolated horse blood, 18 hours 37° C., read-out: M.I.C.

Compound | MIC [2, 3] [µg/mL] | concentration at 5 min (in vivo; po) [ng/mL] | concentration at 10 min (in vivo; po) [ng/mL] | concentration at 20 min (in vivo; po) [ng/mL] | concentration at 0.5 h (in vivo; po) [ng/mL] | concentration at 0.75 h (in vivo; po) [ng/mL] | concentration at 1 h (in vivo; po) [ng/mL] | concentration at 1.5 h (in vivo; po) [ng/mL] | concentration at 5 min (in vivo; sc) [ng/mL] | concentration at 10 min (in vivo; sc) [ng/mL] | concentration at 20 min (in vivo; sc) [ng/mL] | concentration at 0.5 h (in vivo; sc) [ng/mL] | concentration at 0.75 h (in vivo; sc) [ng/mL] | concentration at 1 h (in vivo; sc) [ng/mL] | concentration at 1.5 h (in vivo; sc) [ng/mL] | further results
C/C(=C\C(=O)OCCCC(=NO)c1ccccc1)C[C@@H]1OC[C@H](C[C@@H]2O[C@H]2[C@@H](C)[C@H](C)O)[C@@H](O)[C@H]1O [Example 1, 4-Hydroxyimino-4-phenylbutyl monate A] | 0.5 (≈ 0.989 µM) | 1000 | 790 | 230 | < 200 | < 200 | < 120 | < 200 | 4400 | 6500 | 3100 | 1600 | 460 | 280 | < 200 | concentration at 40 min ([1]; im): 6300 ng/mL; concentration at 10 min ([1]; im): 7000 ng/mL; concentration at 20 min ([1]; im): 6700 ng/mL; concentration at 1 h ([1]; im): 6600 ng/mL; concentration at 2 h ([1]; im): 5200 ng/mL; concentration at 3 h ([1]; im, 3h): 2900 ng/mL; concentration at 4 h ([1]; im, 4h): 1700 ng/mL; concentration at 6 h ([1]; im, 6h): < 900 ng/mL; concentration at 40 min ([1]; po): 3300 ng/mL; concentration at 10 min ([1]; po): 3000 ng/mL; concentration at 20 min ([1]; po): 3000 ng/mL; concentration at 1 h ([1]; po): 1200 ng/mL; concentration at 2 h ([1]; po): < 1000 ng/mL
C/C(=C\C(=O)OCCCC(=NNC(N)=O)c1ccccc1)C[C@@H]1OC[C@H](C[C@@H]2O[C@H]2[C@@H](C)[C@H](C)O)[C@@H](O)[C@H]1O [Example 2, 4-Phenyl-4-semicarbazonobutyl monate A] | 1 (≈ 1.83 µM) | – | – | – | – | – | – | – | – | – | – | – | – | – | – | –
C/C(=C\C(=O)OC1CCC(=NO)CC1)C[C@@H]1OC[C@H](C[C@@H]2O[C@H]2[C@@H](C)[C@H](C)O)[C@@H](O)[C@H]1O (some centres unmarked) [Example 3, 4-Hydroxyiminocyclohexyl monate A] | – | 3500 | 3500 | 2200 | 1900 | 1600 | 800 | 600 | 20600 | 23000 | 16600 | 7900 | 2900 | 1500 | 300 | –
C/C(=C\C(=O)OCCCCCC=NN(C)C)C[C@@H]1OC[C@H](C[C@@H]2O[C@H]2[C@@H](C)[C@H](C)O)[C@@H](O)[C@H]1O [Example 6, 6-Dimethylhydrazonohexyl monate A] | – | 3400 | 3400 | 680 | < 600 | < 600 | < 600 | < 600 | 12100 | 14800 | 9700 | 6800 | 3800 | 2300 | < 600 | MIC ([2]; Haemophilus influenzae, WY21, 18 h): 0.5 µg/mL (≈ 1.03 µM)
C/C(=C\C(=O)OCc1ccc(C=NO)o1)C[C@@H]1OC[C@H](C[C@@H]2O[C@H]2[C@@H](C)[C@H](C)O)[C@@H](O)[C@H]1O [Example 7, 5-Hydroxyiminomethylfurfuryl monate A] | 0.25 (≈ 0.535 µM) | – | – | – | – | – | – | – | – | – | – | – | – | – | – | –
